Data from the Kinase Knowledgebase extract (Sharma et al. 2016).

Target: EGFR (human) (UniProt P00533)
Conditions: kb

Sequence of EGFR (human) (P00533 whole entry, looked up): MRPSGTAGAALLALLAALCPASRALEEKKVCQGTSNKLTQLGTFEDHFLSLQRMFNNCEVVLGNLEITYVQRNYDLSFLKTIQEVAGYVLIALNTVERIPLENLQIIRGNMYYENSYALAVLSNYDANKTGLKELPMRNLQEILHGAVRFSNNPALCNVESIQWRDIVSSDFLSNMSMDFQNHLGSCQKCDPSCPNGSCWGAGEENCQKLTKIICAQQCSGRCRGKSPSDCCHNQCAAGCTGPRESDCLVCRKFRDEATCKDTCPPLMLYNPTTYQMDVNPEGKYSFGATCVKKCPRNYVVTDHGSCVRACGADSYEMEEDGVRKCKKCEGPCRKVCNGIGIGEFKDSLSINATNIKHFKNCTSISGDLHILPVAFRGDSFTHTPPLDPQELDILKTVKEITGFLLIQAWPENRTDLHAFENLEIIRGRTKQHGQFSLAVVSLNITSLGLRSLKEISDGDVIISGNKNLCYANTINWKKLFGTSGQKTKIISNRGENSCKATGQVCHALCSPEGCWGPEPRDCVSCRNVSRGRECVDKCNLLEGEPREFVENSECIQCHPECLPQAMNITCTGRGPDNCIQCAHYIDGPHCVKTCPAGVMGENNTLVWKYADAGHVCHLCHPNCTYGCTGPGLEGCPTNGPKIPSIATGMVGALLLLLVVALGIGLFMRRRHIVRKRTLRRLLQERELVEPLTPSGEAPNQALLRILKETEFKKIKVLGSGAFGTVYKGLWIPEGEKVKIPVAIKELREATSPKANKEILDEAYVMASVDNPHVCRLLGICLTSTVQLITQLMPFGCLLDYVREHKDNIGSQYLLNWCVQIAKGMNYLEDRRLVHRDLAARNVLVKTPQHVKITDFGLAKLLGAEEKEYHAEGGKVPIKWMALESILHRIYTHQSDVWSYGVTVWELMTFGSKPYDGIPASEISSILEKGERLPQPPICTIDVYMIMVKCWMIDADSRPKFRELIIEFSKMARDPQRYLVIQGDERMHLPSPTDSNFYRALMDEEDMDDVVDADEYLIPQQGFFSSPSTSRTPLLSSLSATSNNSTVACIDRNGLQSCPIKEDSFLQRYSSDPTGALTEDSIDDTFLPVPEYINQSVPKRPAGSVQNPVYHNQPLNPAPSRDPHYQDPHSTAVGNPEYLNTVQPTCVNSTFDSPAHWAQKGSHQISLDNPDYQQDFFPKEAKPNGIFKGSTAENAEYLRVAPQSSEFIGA

| Structure (SMILES) | IC50 |
| --- | --- |
| COc1cc2ncnc(NCc3cccc(C)c3)c2cc1OC | 1600 nM |
| COc1cc2ncnc(Nc3nnc4ccccc4n3)c2cc1OC | > 25000 nM |
| COc1cc2ncnc(NC3CC3c3ccccc3)c2cc1OC(C)=O (centres undefined) | 11400 nM |
| COc1cc2ncnc(N3CCc4ccccc43)c2cc1OC | 4100 nM |
| COc1cc2ncnc(Nc3cnc4ccccc4n3)c2cc1OC | > 25000 nM |
| COc1cc2ncnc(NC3CC3c3ccccc3)c2cc1O (centres undefined) | > 25000 nM |
| COc1cc2ncnc(Nc3nccc4ccccc34)c2cc1OC | 1800 nM |
| COc1cc2ncnc(NC3CCc4ccccc43)c2cc1OC (centres undefined) | 1730 nM |

Stronger by IC50, values ahead:

| IC50 | Structure (SMILES) |
| --- | --- |
| 310 nM | COc1cc2ncnc(NC3CC3c3ccccc3)c2cc1OCCCN(C)C (centres undefined) |
| 140 nM | COc1cc2ncnc(NC3CC3c3ccccc3)c2cc1OC (centres undefined) |
| 780 nM | COc1cc2ncnc(NNc3ccc(F)c(Cl)c3)c2cc1OC |
| 360 nM | COc1cc2ncnc(Nc3cncc4ccccc34)c2cc1OC |
| 570 nM | COc1cc2ncnc(NC3CC3c3ccccc3)c2cc1OCCN1CCOCC1 (centres undefined) |

Target: EGFR (human) (UniProt P00533)
Conditions: a431, dose or concentration not given here

| Structure (SMILES) | inhibition |
| --- | --- |
| COc1cc2ncnc(NC3CC3c3ccccc3)c2cc1OCCCN(C)C (centres undefined) | 36% |
